Test results reported in patent publication US20260250641A1, “COMPOSITIONS AND USES THEREOF FOR STABILIZATION OF BLOOD SAMPLE COMPONENTS” (STRECK LLC, priority 2023, published 2026).
“Also recorded” adds a separate entry of the source.

Key:
[1] = tested on: white blood cells, red blood cells, and platelets; assay: Third round screening: plasma MPO, ferritin and RANTES as blood cell damage indicators; assay type: cell-based; conditions: inhibitor in Streck B formulation; 7-day room temperature storage; data not shown
Method: The effects of these seven inhibitors on white blood cells, red blood cells, and platelets were evaluated during the third round of screening. […] Therefore, plasma levels of myeloperoxidase (MPO), ferritin, and RANTES were measured with immunoassay as damage indicators of white blood cells, red blood cells, and platelets, respectively. Preservative formulations were made by adding platelet activation inhibitors to Streck B formulation at concentrations determined through the second round of screening. Venous blood was collected from 2 donors for all preservative formulations. EDTA, ACD-A, Streck B formulation and Streck B formulation spiked with 2 mM Tetracaine were used as references. Draw whole blood samples were stored at room temperature for up to 7 days.

platelets [2] = assay: Second round screening: % activated platelets (CD62P/CD61 flow cytometry) and plasma TGF-β1; assay type: cell-based; conditions: inhibitor in Streck B formulation at 3 to 5 dosages; room temperature up to 7 days; data not shown
Method: Preservative formulations were made by adding platelet activation inhibitors to the Streck B formulation at the desired concentrations. Venous blood specimens from 2 donors were then drawn into blood collection tubes (BCTs) prefilled with these formulations. As references, blood specimens were also drawn into EDTA tubes, ACD-A tubes, tubes filed with Streck B formulation, and tubes containing Streck B formulation spiked with and 2 mM tetracaine. Blood specimens were stored at room temperature for up to 7 days.
The percentages of activated platelets (CD62P positive) among total platelets (CD61 positive) in drawn whole blood were measured by flow cytometry. The percentage of activated platelets was tested with Day 0 and Day 3 blood specimens. The plasma levels of TGF-β1 in Day 0, Day 1, Day 3, and Day 7 old blood specimens were measured with immunoassay.

platelets [3] = conditions: 2 mM mexiletine or 1 mM verapamil in Streck B formulation; tubes stored 2-50° C. up to 8 weeks; data not shown
From the text: Freshly made tubes, 2 weeks old tubes, 4 weeks old tubes, and 8 weeks old tubes were then used to collect venous blood from 2 self-proclaimed healthy donors. Blood specimens were stored at room temperature for up to 3 days. The percentage of platelet activation and plasma level of TGF-31 to test the ability of the aged formulation to prevent platelets activation at collection time and during room temperature storage.

platelets [4] = assay: First round screening of platelet activation inhibitors: plasma TGF-β1 by Ella immunoassay; assay type: cell-based; conditions: inhibitor added to Streck B formulation; venous blood at room temperature; data not shown
Method: Blood specimens drawn from 3 donors were stored at room temperature for […]. Activated platelet secret granule contents, such as growth factors, chemokines, and cytokines, into plasma. Elevated plasma concentration of TGF-β1 indicates platelet activation and granule release. Plasma TGF-β1 level was measured with immunoassay using Ella Automated Immunoassay System. Freshly drawn blood (day 0), blood stored for 1 day (Day 1), 3 days (Day 3), and 7 days (Day 7) were tested.
The tested formulations are compared with EDTA and ACD-A for their ability to prevent granule release from platelets. Streck B formulation spiked with 2 mM tetracaine was also used as a reference.

cfDNA [5] = assay: cfDNA stability: Agilent cfDNA ScreenTape Assay
From the text: (§1) The drawn blood samples were stored at room temperature for up to 7 days. Total cell-free nucleic acids were isolated from day 0 or day 7 blood samples using Qiagen's QIAamp Circulating Nucleic Acid Kit.
Plasma cfDNA was further analyzed with Agilent cfDNA ScreenTape Assay on Agilent TapeStation (FIGS. 5C & 5D). […] Thus, the percentage of cfDNA between 150-300 bp among total cfDNA (% cfDNA) was used to indicate genomic DNA contamination (FIG. 5D).

TGF-β1 = assay: Spray-coated microcollection tubes: plasma TGF-β1 (Ella); assay type: cell-based; conditions: 3-day room temperature storage, spray-coated microcollection tubes (FIG. 10)
Method: (§2) Blood was collected from healthy donors, each collected into 1×5 mL EDTA vacutainer tubes and virgin (no anticoagulant). Next, venous blood was aliquoted as quickly as possible into the spray-coated microtainers. The EDTA blood was aliquoted into virgin Greiner microtainers as negative controls. The blood with no anticoagulant was aliquoted into microcollection tubes spray coated with one of three formulations noted in Table 2 below, with two tubes per formulation. The sprayed microtainers were then mixed 15-20 times with the blood sample.
(§3) Half of the samples were analyzed at draw time and the remaining half were stored at room temperature for 3 days before analysis. Plasma protein concentration of TGF-β1 was analyzed with Ella (FIG. 10). Plasma β-Actin level was determined by ddPCR (FIG. 11).

red blood cells = assay: TAP II capillary blood study: hemolysis (A414); assay type: cell-based; conditions: venous blood and TAP II capillary blood, up to 3 days room temperature
From the text: Blood samples were stored at room temperature for up to 3 days.

β-Actin DNA (ACTB) = assay: Spray-coated microcollection tubes: plasma β-Actin by ddPCR
Method: as §2, §3

β-actin (ACTB) = assay: cfDNA stability: plasma β-actin (ACTB) by digital droplet PCR; conditions: day 7 blood, ambient storage
From the text: as §1
(§4) The resultant plasma cfDNA was first studied with Qubit HS DNA Assay (FIG. 5A), which quantifies the concentration of total plasma cfDNA. Without proper stabilization, white blood cells in drawn blood will lyse during storage and release large amounts of genomic DNA fragments into the plasma, leading to elevated total plasma cfDNA. Compared to cfDNA originating from white blood cells, tumor-derived cfDNA is preset at a very low concentration. Tumor-derived cfDNA should not be detectable in healthy donors.

plasma proteins = assay: Venous blood, Luminex xMAP Multiplex Immunoassay Panel; assay type: cell-based; conditions: room temperature storage, 3 to 5 days
Method: After double-spin process, isolated plasma fractions were tested with Luminex xMAP Multiplex Immunoassay Panel.

RBC = assay: In vitro hemolysis, absorbance at 414 nm (Nanodrop); assay type: cell-based; conditions: venous blood, room temperature up to 5 days, N=15
From the text: Hemolysis was quantitatively measured by following the absorbance at 414 nm with Nanodrop. An increased A414 indicates releasing of hemoglobin from broken RBC, which is a key event of hemolysis.

cfRNA [6] = assay: cfRNA stability: Qubit miRNA Assay, total plasma cfRNA; conditions: 7 days ambient storage
From the text: (§5) Total cell-free nucleic acids were isolated from day 0 or day 7 blood samples using Qiagen's QIAamp Circulating Nucleic Acid Kit.
Qubit miRNA Assay was used to quantify the concentration of total plasma cfRNA. If RNA-containing cells, such as reticulocytes and white blood cells, were lysed during storage, then large amounts of RNA fragments would be released into plasma, masking the very low abundant circulating cfRNA while resulting in elevated cfRNA.

platelets [7] = assay: Tasso+ capillary blood study: plasma MPO and RANTES; assay type: cell-based; conditions: venous and Tasso+ capillary blood, up to 3 days room temperature
Method: Tasso+ is a single-use device that collects up to 0.5 mL of capillary blood from a donor's upper arm. Tasso+ is compatible with BD Microtainer® Blood Collection Tubes.
Capillary blood samples were collected from 3 donors. […] Blood samples were stored at room temperature for up to 3 days. Three functionality assays were conducted, including measuring hemolysis (FIG. 8A) and testing the plasma level of MPO (FIG. 8B) and RANTES (FIG. 8C).

cfDNA [8] = assay: cfDNA stability: Qubit HS DNA Assay, total plasma cfDNA
From the text: as §1, §4

cfRNA [9] = assay: cfRNA stability: Agilent RNA Pico Kit, Bioanalyzer; conditions: day 7 versus freshly collected blood
From the text: as §5
The plasma cfRNA was first analyzed with Agilent's RNA Pico Kit on the Agilent Bioanalyzer system (FIG. 6A).

Structure (SMILES) | adverse effects on white blood cells, red blood cells and platelet [1] | ability to reduce platelet activation in second round screening (platelets [2]) | outcome of first round screening (maintaining plasma TGF-β1 comparable to Streck B formulation with tetracaine) (platelets [4]) | further results
Cc1cccc(C)c1OCC(C)N (stereo not drawn) [mexiletine] | little adverse effects | behaved at least comparable to each other | graduated from the first round of the screening | functional stability of aged formulations compared to other tested ion inhibitors (platelets [3]): better functional stability
CCN(CC)CC(=O)Nc1c(C)cccc1C [lidocaine] | little adverse effects | behaved at least comparable to each other |  | 
COc1ccc([C@@H]2Sc3ccccc3N(CCN(C)C)C(=O)[C@@H]2OC(C)=O)cc1 [diltiazem] | little adverse effects | behaved at least comparable to each other | graduated from the first round of the screening | 
CCCCN1CCCCC1C(=O)Nc1c(C)cccc1C (stereo not drawn) [bupivacaine] | little adverse effects | behaved at least comparable to each other | graduated from the first round of the screening | 
COc1ccc(CCN(C)CCCC(C#N)(c2ccc(OC)c(OC)c2)C(C)C)cc1OC (stereo not drawn) [verapamil] | little adverse effects | behaved at least comparable to each other | graduated from the first round of the screening | 
Cc1cccc(C)c1NC(=O)C1CCCCN1C (stereo not drawn) [mepivacaine] | little adverse effects | behaved at least comparable to each other | graduated from the first round of the screening | 
O=C(O)CN(CCN(CC(=O)O)CC(=O)O)CC(=O)O [EDTA, ethylene diamine tetra acetic acid] |  |  |  | % cfDNA (cfDNA between 150-300 bp among total cfDNA) (cfDNA [5]; Day 0 blood): 75%; plasma cfDNA electropherogram plots (cfDNA [5]; Day 7 blood): prominent peak of apoptotic-ladder DNA; % cfDNA (cfDNA between 150-300 bp among total cfDNA) (cfDNA [5]; Day 7 blood, room temperature): 30%; change of plasma TGF-β1 level after storage (TGF-β1): drastically increased; hemolysis (red blood cells): induces hemolysis; level of β-Actin in 3-day old plasma versus draw time plasma (β-Actin DNA (ACTB); 3 days room temperature (FIG. 11)): more than 20 fold; plasma β-Actin DNA level after storage (genomic DNA contamination) (β-Actin DNA (ACTB); 3 days room temperature, spray-coated tubes (FIG. 11)): led to genomic DNA (β-Actin) contamination; plasma level of β-actin (ACTB) DNA (β-actin (ACTB)): high amount of ACTB; plasma concentrations of representative proteins and cytokines (FIG. 2: MPO, TGF-β1, CCL5/RANTES, MMP-9, VEGF, Granzyme B, TNFα, IL-8) (plasma proteins): elevated levels; also recorded: marked increase; in vitro hemolysis (A414) (RBC): in vitro hemolysis since day 3; also recorded: significant hemolysis; increase of total cfRNA after storage (cfRNA [6]): ~5 fold; granule release from activated platelets (plasma MPO and RANTES) (platelets [7]): increased; total plasma cfDNA concentration (cfDNA [8]; day 0 blood): low concentrations of cfDNA; total plasma cfDNA concentration (cfDNA [8]; day 7 blood, room temperature): elevated total cfDNA; plasma cfRNA electropherogram (concentration and population) (cfRNA [9]): greatly changed
C=C[C@H]1C[N@@]2CC[C@H]1C[C@@H]2[C@@H](O)c1ccnc2ccc(OC)cc12 [quinidine] | little adverse effects | behaved at least comparable to each other | graduated from the first round of the screening | 
